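Briefly, cells in 96-well plates were exposed to five compound concentrations for 48 h, and endpoints were estimated by linear interpolation. GI50 marks 50% less growth.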 The source made the active and inactive calls. Cut-off read from the data, not from the text of the source: active = GI50 up to about 1.1 µM and inactive = higher.
What was measured:
Assay in all cases: inhibition of tumour cell growth, NCI panel, 48 h
ACHN = tested on: ACHN
SF-295 = tested on: SF-295
HCC 2998 = tested on: HCC 2998
SF-268 = tested on: SF-268
786-0 = tested on: 786-0
UACC-257 = tested on: UACC-257
SK-MEL-28 = tested on: SK-MEL-28
HOP-62 = tested on: HOP-62
K562 = tested on: K562
SR = tested on: SR
RPMI-8226 = tested on: RPMI-8226
NCI-H23 = tested on: NCI-H23
HT-29 = tested on: HT-29
OVCAR-3 = tested on: OVCAR-3
HOP-92 = tested on: HOP-92
SK-OV-3 = tested on: SK-OV-3
COLO 205 = tested on: COLO 205
UACC-62 = tested on: UACC-62
MDA-MB-231 = tested on: MDA-MB-231

Measured: GI50

c1cc2c(cnc3cscc32)s1
inactive: ACHN > 100 µM | SF-295 > 100 µM | HCC 2998 > 100 µM | SF-268 > 100 µM | 786-0 > 100 µM | UACC-257 > 100 µM | SK-MEL-28 > 100 µM | HOP-62 > 100 µM | K562 > 100 µM | SR > 100 µM | RPMI-8226 > 100 µM | NCI-H23 > 100 µM | HT-29 > 100 µM | OVCAR-3 > 100 µM | HOP-92 > 100 µM

CC1CC(c2ccc([N+](=O)[O-])cc2)=Nc2ccccc2S1 (centres undefined)
inactive: ACHN 19.7 µM | SF-295 19.1 µM | HCC 2998 19.1 µM | SK-OV-3 17.1 µM | SF-268 17.3 µM | 786-0 15.3 µM | UACC-257 18.7 µM | COLO 205 24 µM | SK-MEL-28 17.9 µM | HOP-62 44.9 µM | K562 6.04 µM | SR 5.09 µM | RPMI-8226 2.3 µM | NCI-H23 15.8 µM | HT-29 13.4 µM | OVCAR-3 11.5 µM | UACC-62 14 µM | HOP-92 29 µM

N#Cc1cccc(/C=N/C23CC4CC(CC(C4)C2)C3)c1
inactive: ACHN > 100 µM | SF-295 > 100 µM | HCC 2998 > 100 µM | SK-OV-3 > 100 µM | SF-268 > 100 µM | 786-0 > 100 µM | UACC-257 > 100 µM | COLO 205 > 100 µM | SK-MEL-28 > 100 µM | HOP-62 > 100 µM | K562 38.4 µM | SR 76.2 µM | RPMI-8226 52.2 µM | NCI-H23 > 100 µM | HT-29 > 100 µM | OVCAR-3 > 100 µM | UACC-62 > 100 µM | HOP-92 > 100 µM

O=C1CCCn2c(nc3ccccc32)N1
inactive: ACHN > 100 µM | SF-295 > 100 µM | SK-OV-3 > 100 µM | SF-268 > 100 µM | 786-0 > 100 µM | UACC-257 > 100 µM | MDA-MB-231 > 100 µM | COLO 205 > 100 µM | HOP-62 > 100 µM | K562 > 100 µM | SR > 100 µM | RPMI-8226 > 100 µM | NCI-H23 > 100 µM | HT-29 > 100 µM | OVCAR-3 > 100 µM | UACC-62 > 100 µM | HOP-92 > 100 µM

COc1cc(/C=C2\CCC(C)(CN(C)C)C2=O)cc(OC)c1OC (centres undefined)
inactive: ACHN > 100 µM | SF-295 > 100 µM | HCC 2998 > 100 µM | SK-OV-3 > 100 µM | SF-268 > 100 µM | 786-0 > 100 µM | UACC-257 > 100 µM | COLO 205 > 100 µM | SK-MEL-28 > 100 µM | HOP-62 > 100 µM | K562 63.7 µM | SR 63.4 µM | RPMI-8226 40.8 µM | NCI-H23 > 100 µM | HT-29 > 100 µM | OVCAR-3 > 100 µM | UACC-62 70.5 µM | HOP-92 > 100 µM

CCOC(=O)c1cnc2oc(-c3ccc(OC)cc3)nn2c1=O
inactive: SF-295 > 100 µM | HCC 2998 > 100 µM | SK-OV-3 > 100 µM | SF-268 > 100 µM | 786-0 > 100 µM | UACC-257 > 100 µM | COLO 205 > 100 µM | SK-MEL-28 > 100 µM | K562 > 100 µM | SR > 10 µM | RPMI-8226 > 100 µM | NCI-H23 > 100 µM | HT-29 > 100 µM | OVCAR-3 > 100 µM | UACC-62 71.1 µM | HOP-92 29.5 µM

CS(=O)(=O)c1ccc(C(=O)O[C@@H]2C(=O)N3CC[C@H]4OC(O)[C@@H]2[C@H]43)cc1 (some centres undefined)
inactive: ACHN > 100 µM | SF-295 > 100 µM | HCC 2998 > 100 µM | SK-OV-3 > 100 µM | SF-268 > 100 µM | 786-0 60.7 µM | UACC-257 > 100 µM | MDA-MB-231 > 100 µM | COLO 205 > 100 µM | SK-MEL-28 > 100 µM | HOP-62 > 100 µM | K562 > 100 µM | SR > 100 µM | RPMI-8226 > 100 µM | NCI-H23 > 100 µM | HT-29 > 100 µM | OVCAR-3 > 100 µM | UACC-62 > 100 µM

CCCCCCCCCCCC(=O)OCC1OC(n2cc(F)c(=O)[nH]c2=O)C(N)C(O)C1O (centres undefined)
inactive: ACHN > 100 µM | SF-295 > 100 µM | HCC 2998 > 100 µM | SK-OV-3 > 100 µM | SF-268 > 100 µM | 786-0 > 100 µM | UACC-257 > 100 µM | COLO 205 60.3 µM | SK-MEL-28 > 100 µM | HOP-62 > 100 µM | K562 32.2 µM | SR 81.7 µM | RPMI-8226 > 100 µM | NCI-H23 84.7 µM | HT-29 55.3 µM | OVCAR-3 > 100 µM | UACC-62 42 µM | HOP-92 > 100 µM

NC(=O)N/N=C(\C(=O)C(=O)Nc1ccc(Cl)c(C(F)(F)F)c1)c1nc2ccc(C(=O)c3ccccc3)cc2nc1O
inactive: ACHN 82.4 µM | SF-295 > 100 µM | HCC 2998 > 100 µM | SK-OV-3 85.7 µM | SF-268 70.3 µM | 786-0 > 100 µM | UACC-257 72.4 µM | COLO 205 > 100 µM | SK-MEL-28 > 100 µM | K562 48.4 µM | SR 45.7 µM | RPMI-8226 > 100 µM | NCI-H23 97.9 µM | HT-29 95.3 µM | UACC-62 59 µM | HOP-92 7.36 µM

O=C1C=C(Nc2ccccc2C(=O)CC(=O)C(=O)Nc2ccc(Cl)c(Cl)c2)c2ccccc2C1=O
inactive: ACHN 73.5 µM | SF-295 59 µM | HCC 2998 > 100 µM | SK-OV-3 > 100 µM | SF-268 19.9 µM | 786-0 35.3 µM | UACC-257 20.9 µM | COLO 205 > 100 µM | SK-MEL-28 10.6 µM | HOP-62 > 100 µM | K562 12.2 µM | SR 5 µM | RPMI-8226 35.6 µM | NCI-H23 21.1 µM | HT-29 > 100 µM | OVCAR-3 34.4 µM | UACC-62 23.6 µM | HOP-92 75.9 µM

CCOC(=O)C(NC(=O)c1nc[nH]c1/N=N/N(C)C)C(C)C (centres undefined)
inactive: ACHN > 100 µM | SF-295 > 100 µM | HCC 2998 > 100 µM | SK-OV-3 > 100 µM | SF-268 > 100 µM | 786-0 > 100 µM | UACC-257 > 100 µM | COLO 205 > 100 µM | SK-MEL-28 > 100 µM | HOP-62 > 100 µM | K562 > 100 µM | SR > 100 µM | RPMI-8226 > 100 µM | NCI-H23 > 100 µM | HT-29 > 100 µM | OVCAR-3 > 100 µM | UACC-62 > 100 µM

O=C(O)CP(=S)(S)c1ccccc1 (centres undefined)
inactive: ACHN > 100 µM | SF-295 > 100 µM | SK-OV-3 > 100 µM | SF-268 > 100 µM | 786-0 > 100 µM | UACC-257 > 100 µM | COLO 205 > 100 µM | SK-MEL-28 > 100 µM | HOP-62 > 100 µM | K562 > 100 µM | SR > 100 µM | NCI-H23 > 100 µM | HT-29 > 100 µM | UACC-62 > 100 µM | HOP-92 > 100 µM

Reference: ChEMBL document CHEMBL1201862, “PubChem BioAssay data set” (2004)
